Test results published in US20250143306A1, “COMBINATION FOR IMPROVING PLANT GROWTH AND/OR YIELD, FORMULATION AND METHOD FOR INCREASING PLANT GROWTH, STRESS RESISTANCE, AND YIELDS, AND USE THEREOF” (INSTITUTE OF EXPERIMENTAL BOTANY CAS CR, V.V.I., priority 2022, published 2025).
Marks after values point to notes of the source that are not given here.

Columns and labels:
Assay type in all cases: in vivo
[1] = test system: Oilseed rape variety Elgar (2018) and Elizze (2019); experiment: Grain yield of field-grown oilseed rape (Example 5); conditions: MTU 0.4 g/ha, pyroglutamic acid 40 g/ha
Procedure: Oilseed rape variety Elgar (2018) and Elizze (2019) were grown in the UK in the years 2018 and 2019. Experiments were performed in accordance with the Good Experimental Practice criteria. MTU was applied by spraying at a concentration of 10 μM (2 mg/L) and a dosage of 200 L/ha (0.4 g/ha of MTU). Pyroglutamic acid was used at 40 g/ha, applied at a dosage of 200 L/ha in a water solution.

[2] = test system: winter wheat plants; experiment: Root dry weight of winter wheat, method of testing the synergistically effective amounts of MTU and PCA (optimal conditions)
Procedure: The synergistically effective amounts of MTU and pyroglutamic acid (PCA) were determined by the method of determining the root growth of winter wheat plants. […].
As a first control, MTU was applied to another group of the winter wheat plants at the following amounts: 1, 2, 4 and 8 mg/liter of the composition.
As a second control, PCA was applied to another group of the winter wheat plants at the amount of 200 mg/liter of the composition.
As a negative control, another group of the winter wheat plants was applied only water in the same amount as the compositions applied to the above-described groups.
The plants were then grown at 20° C. under natural light for a period of 45 days. The root dry weight (RDW) of at least 30 plants was measured 45 days after the plants had been sown for each group. RDW was recorded after drying the plants at 70° C. for 2 days.
The relative increase in RDW was calculated as % of control (Table 1). The % of control for combinations containing MTU: PCA in ratios 1:200, 2:200 and 4:200 was higher than the sum of % of control of only PCA group (+8.8%) with the MTU group (1, 2 or 4 mg).

[3] = test system: Winter wheat variety Barrel; experiment: Nitrogen content in grains of field-grown winter wheat, Kjeldahl method (Example 4); conditions: MTU 0.4 g/ha, pyroglutamic acid 40 g/ha
Procedure: (§1) The field experiments were done in 2019 in the UK and they were performed in accordance with the Good Experimental Practice criteria. Winter wheat variety Barrel was used. MTU was applied by spraying at a concentration of 10 μM (2 mg/L) and a dosage of 200 L/ha (0.4 g/ha of MTU). Pyroglutamic acid was used at 40 g/ha, applied at a dose of 200 l/ha in a water solution.
Wheat grains used to make bread require a grain nitrogen content of 2.1% (w/w) or higher. Grains from each sample treatment from the experiment described in Example 3 were analyzed for nitrogen content. The analysis was done using a Kjeldahl method (Kjeldahl, J. (1883) “New method for the determination of nitrogen in organic substances), Zeitschrift für analytische Chemie, 22 (1): 366-383.

[4] = test system: wheat (Triticum aestivum) cv. Balitus; experiment: Root and shoot dry weight and total chlorophyll content of wheat under drought stress conditions (Example 2)
Procedure: To investigate the effect of the combinations on the weight parameters, and the total content of chlorophyll, seeds of wheat (Triticum aestivum) cv. Balitus were sown in a hydroponic growing system (Araponics, Liege, Belgium) using Hoagland's solution (control). Twenty days after sowing plants (except for control plants) were sprayed by either MTU (10 μM) or by nitrogen utilization enhancers alone or with a combination of MTU (10 μM) and nitrogen utilization enhancers. The plants were grown in a glasshouse at 20-28° C. under a combination of natural and artificial light. Since the treatment (20 days after sowing), the plants received low water doses. […] The root dry weight (RDW), shoot dry weight (SDW), and total chlorophyll content (TCC) of at least 25 plants were measured at the end of the experiment—45 days after the plants had been sown. RDW and SDW were recorded after drying the plants at 70° C. for 2 days. The chlorophyll content of each plant was measured by SPAD meter reading at the end of the experiment and TCC was calculated as SPAD value per SDW.

[5] = test system: Winter wheat variety Barrel; experiment: Grain yield of field-grown winter wheat (Example 3); conditions: MTU 0.4 g/ha, pyroglutamic acid 40 g/ha, UK 2019
Procedure: as §1

[6] = test system: sunflower (Helianthus sp. L.); experiment: Seed yield of field-grown sunflower (Example 6); conditions: Hungary 2020, MTU 2 mg/L at 300 L/ha, pyroglutamic acid 50 g/ha
Procedure: Seeds of sunflower (Helianthus sp. L.) were sown in Hungary in 2020 in accordance with the Good Experimental Practice criteria. MTU was applied by spraying at a concentration of 10 μM (2 mg/L) and a dosage of 300 L/ha. Pyroglutamic acid was used at 50 g/ha, applied at a dosage of 300 L/ha in a water solution.

[7] = test system: wheat (Triticum aestivum) cv. Balitus; experiment: Root and shoot dry weight and leaf nitrogen content of hydroponically grown wheat under optimal conditions (Example 1)
Procedure: To investigate the effect of the combinations on the weight parameters, the seeds of wheat (Triticum aestivum) cv. Balitus were sown in a hydroponic growing system (Araponics, Liege, Belgium) using Hoagland's solution (control). Twenty days after sowing, plants (except for control plants) were sprayed by aqueous solution of either MTU (10 μM) or by a nitrogen utilization enhancer alone or by a combination of MTU (10 μM) with the nitrogen utilization enhancer. The plants were grown in the Czech Republic in a glasshouse at 16-25° C. under natural and artificial light during the winter period. The root dry weight (RDW), shoot dry weight (SDW) and the nitrogen content in the leaves of at least 30 plants were measured 45 days after the plants had been sown. RDW and SDW were recorded after drying the plants at 70° C. for 2 days.

[8] = UK 2018, application at BBCH 13
[9] = UK 2018, application at BBCH 65
[10] = UK 2019, application at BBCH 65
[11] = UK 2019, application at BBCH 70
[12] = 200 mg in 1 liter of composition

Structure (SMILES): COCCNC(=O)Nc1cnns1 [MTU, 1-(2-methoxyethyl)-3-(1,2,3-thiadiazol-5yl)urea]
- Yield % of control [1, 8]: +2.9%
- Yield (grain) [1, 8]: 3.90 t/ha
- Yield % of control [1, 9]: +4.8%
- Yield (grain) [1, 9]: 4.61 t/ha
- Yield % of control [1, 10]: +6.2%
- Yield (grain) [1, 10]: 3.93 t/ha
- Yield % of control [1, 11]: +3.8%
- Yield (grain) [1, 11]: 3.84 t/ha
- RDW % of control ([2]; 1 mg in 1 liter of composition): +5.5%
- RDW (root dry weight) ([2]; 1 mg in 1 liter of composition): 0.96 g
- RDW % of control ([2]; 2 mg in 1 liter of composition): +7.7%
- RDW (root dry weight) ([2]; 2 mg in 1 liter of composition): 0.98 g
- RDW % of control ([2]; 4 mg in 1 liter of composition): +15.4%
- RDW (root dry weight) ([2]; 4 mg in 1 liter of composition): 1.05 g
- RDW % of control ([2]; 8 mg in 1 liter of composition): +18.1%
- RDW (root dry weight) ([2]; 8 mg in 1 liter of composition): 1.07 g
- Nitrogen content % of control ([3]; application at BBCH 32): −9.5%
- Nitrogen content (%) of grains ([3]; application at BBCH 32): 1.82%
- Nitrogen content % of control ([3]; application at BBCH 39): −2.0%
- Nitrogen content (%) of grains ([3]; application at BBCH 39): 1.97%
- Nitrogen content % of control ([3]; application at BBCH 50-55): −10.0%
- Nitrogen content (%) of grains ([3]; application at BBCH 50-55): 1.81%
- RDW (root dry weight) ([4]; concentration 2 mg/L): 0.74 g
- SDW (shoot dry weight) ([4]; concentration 2 mg/L): 1.28 g
- Yield % of control ([5]; application at BBCH 32): +2.4%
- Yield (grain) ([5]; application at BBCH 32): 10.225 t/ha
- Yield % of control ([5]; application at BBCH 39): +2.4%
- Yield (grain) ([5]; application at BBCH 39): 10.230 t/ha
- Yield % of control ([5]; application at BBCH 50-55): +0.5%
- Yield (grain) ([5]; application at BBCH 50-55): 10.033 t/ha
- Yield % of control ([6]; application at BBCH 16-18): +12.0%
- Yield (seed) ([6]; application at BBCH 16-18): 3.08 t/ha
- Yield % of control ([6]; application at BBCH 55): +4.7%
- Yield (seed) ([6]; application at BBCH 55): 2.88 t/ha
- Nitrogen content in the leaves ([7]; concentration 2 mg/L): 4.47 weight %
- RDW % of control ([7]; concentration 2 mg/L): +3.8%
- RDW (root dry weight) ([7]; concentration 2 mg/L): 0.83 g
- SDW % of control ([7]; concentration 2 mg/L): +3.9%
- SDW (shoot dry weight) ([7]; concentration 2 mg/L): 1.58 g

Structure (SMILES): O=C1CC[C@@H](C(=O)O)N1 [Pyroglutamic acid, pyroglutamic acid]
- Yield % of control [1, 8]: +5.0%
- Yield (grain) [1, 8]: 3.97* t/ha
- Yield % of control [1, 9]: +23.9%
- Yield (grain) [1, 9]: 5.45* t/ha
- Yield % of control [1, 10]: +3.5%
- Yield (grain) [1, 10]: 3.83 t/ha
- Yield % of control [1, 11]: +5.4%
- Yield (grain) [1, 11]: 3.90 t/ha
- RDW % of control [2, 12]: +8.8%
- RDW (root dry weight) [2, 12]: 0.99 g
- Nitrogen content % of control ([3]; application at BBCH 32): −7.0%
- Nitrogen content (%) of grains ([3]; application at BBCH 32): 1.87%
- Nitrogen content % of control ([3]; application at BBCH 39): −5.5%
- Nitrogen content (%) of grains ([3]; application at BBCH 39): 1.90%
- Nitrogen content % of control ([3]; application at BBCH 50-55): −10.0%
- Nitrogen content (%) of grains ([3]; application at BBCH 50-55): 1.81%
- RDW % of control ([4]; concentration 200 mg/L): +11.9%
- RDW (root dry weight) ([4]; concentration 200 mg/L): 0.75 g
- SDW % of control ([4]; concentration 200 mg/L): −1.6%
- SDW (shoot dry weight) ([4]; concentration 200 mg/L): 1.2 g
- RDW % of control ([4]; concentration 400 mg/L): +14.9%
- RDW (root dry weight) ([4]; concentration 400 mg/L): 0.77 g
- SDW % of control ([4]; concentration 400 mg/L): +0.8%
- SDW (shoot dry weight) ([4]; concentration 400 mg/L): 1.23 g
- Yield % of control ([5]; application at BBCH 32): +1.8%
- Yield (grain) ([5]; application at BBCH 32): 10.167 t/ha
- Yield % of control ([5]; application at BBCH 39): +2.0%
- Yield (grain) ([5]; application at BBCH 39): 10.183 t/ha
- Yield % of control ([5]; application at BBCH 50-55): +2.6%
- Yield (grain) ([5]; application at BBCH 50-55): 10.241 t/ha
- Yield % of control ([6]; application at BBCH 16-18): +5.0%
- Yield (seed) ([6]; application at BBCH 16-18): 2.89 t/ha
- Yield % of control ([6]; application at BBCH 55): +6.3%
- Yield (seed) ([6]; application at BBCH 55): 2.92 t/ha
- RDW % of control ([7]; concentration 200 mg/L): +6.3%
- RDW (root dry weight) ([7]; concentration 200 mg/L): 0.85 g
- SDW % of control ([7]; concentration 200 mg/L): +6.8%
- SDW (shoot dry weight) ([7]; concentration 200 mg/L): 1.63 g
- Nitrogen content in the leaves ([7]; concentration 400 mg/L): 4.65 weight %
- RDW % of control ([7]; concentration 400 mg/L): +13.8%
- RDW (root dry weight) ([7]; concentration 400 mg/L): 0.91 g
- SDW % of control ([7]; concentration 400 mg/L): +10.5%
- SDW (shoot dry weight) ([7]; concentration 400 mg/L): 1.68 g
